Measured values: patent US7045309B2, “9-substituted adenine derivatives as prodrug regulators of cell and tissue function” (The Research Foundation of State University of New York, priority 2000, dated 2006)
Read-outs that look alike come from different tables or passages of the source.

Assays:
[1] = biological target: rat brain adenylyl cyclase; settings: cited from earlier work
Ob1771 pre-adipocytes = assay: inhibition of forskolin-stimulated [3H]cAMP formation in cells prelabeled with [3H]adenine, Ob1771; assay type: cell-based; settings: read-out: IC50, forskolin-stimulated [3H]cAMP formation, Ob1771 pre-adipocytes
Description: (§1) The nucleotide prodrugs were tested for their capacity to inhibit the forskolin-stimulated formation of [^3H]cAMP in cells that had been preloaded with [^3H]adenine. Human macrophages and two preadipocyte cell lines were tested.
(§2) (i) Preadipocytes: Preadipocytes were cultured in DMEM LG medium that was supplemented with 8% fetal bovine serum and 1% of an antibiotics mixture in 2 ml Petri dishes until they reached 90-95% confluence. Growth medium was removed and 1 ml of DMEM LG medium containing 2,8-[^3H]-adenine (5μCi) was added to each dish. Cells were incubated for 2 h at 37° C. Medium was removed and cells were incubated for 15 min at 37° C. in 1 ml of unsupplemented medium. The medium was removed and 1 ml of DMEM LG medium supplemented with 0.1 mg/ml bovine serum albumin and 0.1 mM 3-isobutyl-1-methylxanthine was added.
(§3) Ten microliters of a solution of the test substance was added to yield the appropriate concentration of inhibitor in the medium. After 15 min of incubation at 37° C. 3 μl of a 10 mM solution of forskolin in ethanol was added to the medium and the cells were further incubated for 15 min at 37° C. The medium was removed and the reaction was stopped by the addition of 1 ml of a freshly prepared solution of 0.5 mM solution of cAMP in 0.3 M perchloric acid. Dishes were then kept on ice for 30 min. To 800 μl of the resulting cell extract was then added 90 μl of 0.5 M triethanolammonium chloride butler (pH=7.5). The extract was then neutralized by addition of aqueous potassium hydroxide. [^3H]cAMP was purified from a 700 μl portion of this mixture by sequential chromatography on Dowex 50 and alumina as previously described. A portion of the purified sample was used to quantify the […] formed and the remainder was used to quantify recovery by UV spectroscopy.

F442A pre-adipocytes = assay: inhibition of forskolin-stimulated [3H]cAMP formation in cells prelabeled with [3H]adenine, F442A; assay type: cell-based; settings: 15 min preincubation, forskolin 15 min
Description: as §1, §2, §3

[2] = system: rat brain adenylyl cyclase; assay: inhibition of rat brain adenylyl cyclase; assay type: biochemical
Description: (§4) Adenylyl cyclase activities were determined as previously described, with a reaction mixture containing 100 μM 5′ATP, 5 mM MnCl2, and 100 μM forskolin. IC50 values were determined graphically.

[3] = system: adenylyl cyclase of Ob1771 cell membranes; assay: inhibition of adenylyl cyclase of Ob1771 cell membranes; assay type: biochemical; settings: for IC50: 100 μM 5′ATP, 5 mM MnCl2, 100 μM forskolin, determined graphically
Description: as §4

Human Macrophages = assay: inhibition of forskolin-stimulated [3H]cAMP formation in cells prelabeled with [3H]adenine, macrophages; assay type: cell-based; settings: read-out: IC50, forskolin-stimulated [3H]cAMP formation, Human Macrophages
Description: as §1
(ii) Macrophages. Macrophages were plated on culture dishes and allowed to adhere in RPMI culture medium. Cells were labeled with 2,8-[^3H]-adenine as described above for the preadipocytes.
as §3

preadipocyte cell lines = assay: differentiation of preadipocyte cell lines; assay type: cell-based; settings: both preadipocyte cell lines; not shown
[4] = system: isoproterenol-stimulated, cAMP/PKA-dependent Cl− channel of cardiac ventricular myocytes; assay: block of isoproterenol-stimulated Cl- channel in cardiac ventricular myocytes; assay type: cell-based; settings: not shown, read-out: IC50 for block of Cl− channel function
rat atria = assay: contractility of isolated spontaneously contracting rat atria; settings: preincubation with 10 μM for 15 min
Description: To test this, rat atria were excised from a male albino rat and attached to a strain gauge to allow contractions to be measured. The spontaneously contracting tissue was suspended in a chamber and allowed to equilibrate for 15 min in Krebs-Henseleit medium (Sigma K3753) supplemented with 25 mM […], 2.5 mM CaCl2, and 2 mM pyruvate, maintained at 37° and continuously gassed with […].

[5] = system: adenylyl cyclase isolated from these tissues; assay: effect on adenylyl cyclase isolated from the tissues; assay type: biochemical; settings: concentrations up to 300 μM
[6] = Table 1, from Johnson and coll. [27-32], read-out: IC50 for rat brain adenylyl cyclase
[7] = Table 1, read-out: IC50 to inhibit adenylyl cyclase
[8] = Ob1771, 15 min preincubation, forskolin 15 min
[9] = 100 μM 5′ATP, 5 mM MnCl2, 100 μM forskolin, determined graphically, read-out: IC50, Rat Brain Adenylyl Cyclase
[10] = 2′-triphosphate forms, read-out: IC50 for inhibition of rat brain adenylyl cyclase

**Q.** With CC1OC(n2cnc3c(N)ncnc32)CC1OP(=O)(O)OP(=O)(O)OP(=O)(O)OP(=O)(O)O (centres unmarked) [2′,5′ddAdo 3′˜PPPP] as the compound, how does the IC50 [1, 6] read?
**A.** 7.4 nM

**Q.** For C[C@H]1O[C@@H](n2cnc3c(N)ncnc32)C[C@@H]1OP(=O)(O)OP(=O)(O)OP(=O)(O)O [2′,5′ddAdo 3′˜PPP], which IC50 [1, 7] is on record?
**A.** 40 nM

**Q.** With CC1OC(n2cnc3c(N)ncnc32)CC1OP(=O)(O)OP(=O)(O)O (centres unmarked) [2′,5′ddAdo 3′˜PP] as the compound, how does the IC50 [1, 6] read?
**A.** 100 nM

**Q.** With C[C@H]1O[C@@H](n2cnc3c(N)ncnc32)C[C@@H]1OP(O)(O)=S [2′,5′ddAdo 3′˜PS] as the compound, how does the IC50 [1, 6] read?
**A.** 600 nM

**Q.** With C[C@H]1O[C@@H](n2cnc3c(N)ncnc32)C[C@@H]1OP(=O)(O)O [2′,5′ddAdo 3′˜P] as the compound, how does the IC50 [1, 6] read?
**A.** 460 nM

**Q.** With C[C@H]1O[C@@H](n2cnc3c(N)ncnc32)C[C@@H]1O [2′,5′ddAdo, 2′,5′-dideoxyadenosine] as the compound, how does the IC50 [1, 6] read?
**A.** 2700 nM

**Q.** With Nc1ncnc2c1ncn2C1CC(OP(=O)(O)OP(=O)(O)OP(=O)(O)OP(=O)(O)O)C(CO)O1 (centres unmarked) [2′dAdo 3′˜PPPP] as the compound, how does the IC50 [1, 6] read?
**A.** 10.5 nM

**Q.** With Nc1ncnc2c1ncn2C1CC(OP(=O)(O)OP(=O)(O)OP(=O)(O)O)C(CO)O1 (centres unmarked) [2′dAdo 3′˜PPP] as the compound, how does the IC50 [1, 6] read?
**A.** 90 nM

**Q.** For Nc1ncnc2c1ncn2C1CC(OP(=O)(O)OP(=O)(O)O)C(CO)O1 (centres unmarked) [2′dAdo 3′˜PP], which IC50 [1, 6] is on record?
**A.** 140 nM

**Q.** Which IC50 [1, 6] does the source give for Nc1ncnc2c1ncn2[C@H]1C[C@H](OP(O)(O)=S)[C@@H](CO)O1 [2′dAdo 3′˜PS] here?
**A.** 3100 nM

**Q.** With Nc1ncnc2c1ncn2[C@H]1C[C@H](OP(=O)(O)O)[C@@H](CO)O1 [2′dAdo 3′˜P] as the compound, how does the IC50 [1, 6] read?
**A.** 1200 nM

**Q.** With Nc1ncnc2c1ncn2[C@H]1C[C@H](O)[C@@H](CO)O1 [2′dAdo] as the compound, how does the IC50 [1, 6] read?
**A.** 15000 nM

**Q.** For CC(C)(C)C(=O)SCCOP(=O)(OCCSC(=O)C(C)(C)C)O[C@H]1CCC[C@H]1n1cnc2c(N)ncnc21 [(1R,2S)-9-(cyclopentyl)-Ade-2′-P-bis(t-Bu-SATE)], which IC50 (Ob1771 pre-adipocytes; [8]) is on record?
**A.** > 30000 nM

**Q.** For CC(C)(C)C(=O)SCCOP(=O)(OCCSC(=O)C(C)(C)C)O[C@@H]1CCC[C@@H]1n1cnc2c(N)ncnc21 [(1S,2R)-9-(cyclopentyl)-Ade-2′-P-bis(t-Bu-SATE)], which IC50 (Ob1771 pre-adipocytes; [8]) is on record?
**A.** > 30000 nM

**Q.** For Nc1ncnc2c1ncn2[C@@H]1O[C@H](CO)[C@@H](OP(=O)(O)OP(=O)(O)OP(=O)(O)O)[C@H]1O [Ado 3′˜PPP], which IC50 [1, 6] is on record?
**A.** 2000 nM

**Q.** For Nc1ncnc2c1ncn2C1OC(CO)C(OP(=O)(O)OP(=O)(O)O)C1O (centres unmarked) [Ado 3′˜PP], which IC50 [1, 6] is on record?
**A.** 3900 nM

**Q.** For Nc1ncnc2c1ncn2C1OC(CO)C(OP(=O)(O)O)C1O (centres unmarked) [Ado 3′˜P], which IC50 [1, 6] is on record?
**A.** 8900 nM

**Q.** With Nc1ncnc2c1ncn2[C@@H]1O[C@H](CO)[C@@H](O)[C@H]1O [Ado] as the compound, how does the IC50 [1, 6] read?
**A.** 82000 nM

**Q.** With CC(=O)SCCOP(=O)(OCCSC(C)=O)O[C@H]1C[C@H](n2cnc3c(N)ncnc32)O[C@@H]1C [Compound 1, 2′,5′-dideoxyadenosine-3′-O-bis(S-acetyl-2-thioethyl) phosphate] as the compound, how does the IC50 (F442A pre-adipocytes) read?
**A.** 30 nM

**Q.** Which results are given for C[C@H]1O[C@@H](n2cnc3c(N)ncnc32)C[C@@H]1OP(=O)(OCCSC(=O)C(C)(C)C)OCCSC(=O)C(C)(C)C [Compound 2, 2,5′-dideoxyadenosine-3′-O-bis(S pivaloyl-2-thioethyl) phosphate]?
**A.** inhibition of Rat Brain Adenylyl Cyclase at 100 μM ([2]; at 100 μM): no inhibition; effect on the activity of adenylyl cyclases per se, enzyme from rat brain ([2]; isolated enzyme): no effect; inhibition of adenylyl cyclase of Ob1771 cell membranes at 100 μM ([3]; at 100 μM): 20% inhibition; effect on the activity of adenylyl cyclases per se, enzyme from the preadipocytes ([3]; isolated enzyme): no effect; IC50 (Ob1771 pre-adipocytes; [8]): 30 nM; IC50 (F442A pre-adipocytes): 100 nM; IC50 (Human Macrophages; human macrophages, 15 min preincubation, forskolin 15 min): 50 nM; rate of differentiation (preadipocyte cell lines): accelerated rates of differentiation; IC50 [4]: ~82 nM; stimulation of contractility caused by phenylephrine (rat atria): completely blocked; stimulation of contractility caused by forskolin (rat atria; not shown): completely blocked; effect on adenylyl cyclase isolated from these tissues [5]: no effect

**Q.** With C[C@H]1O[C@@H](n2cnc3c(N)ncnc32)C[C@@H]1OP(=O)(OCCSC(=O)c1ccccc1)OCCSC(=O)c1ccccc1 [Compound 3, 2,5′-dideoxyadenosine-3′-O-bis(S-benzoyl-2-thioethyl) phosphate] as the compound, how does the IC50 (F442A pre-adipocytes) read?
**A.** 800 nM

**Q.** Which IC50 (F442A pre-adipocytes) does the source give for C[C@H]1O[C@@H](n2cnc3c(N)ncnc32)C[C@@H]1OP(=O)(OCCSC(=O)C(C)(C)C)OCCSC(=O)C(C)(C)C [Compound 5, β-L-2′,5′-dideoxyadenosine-3′-O-bis(S-pivaloyl-2-thioethyl)-phosphate] here?
**A.** ~2000 nM

**Q.** Which IC50 (Ob1771 pre-adipocytes; [8]) does the source give for CC(C)(C)C(=O)SCCOP(=O)(OCCSC(=O)C(C)(C)C)OC[C@@H]1CC[C@H](n2cnc3c(N)ncnc32)O1 [Compound 8, β-L-2′,3′-dideoxyadenosine-5′-O-bis(S-pivaloyl-2-thioethyl)-phosphate] here?
**A.** > 30000 nM

**Q.** What does the source list for CC1OC(n2cnc3c(N)ncnc32)CC1OP1(=O)OCc2ccccc2O1 (centres unmarked) [Compound 10, 2′,5′-dideoxyadenosine-3.0-cyclosaligenyl phosphate]?
**A.** IC50 [2, 9]: 7000 nM; IC50 [3]: 30000 nM; IC50 (Ob1771 pre-adipocytes): ~2000 nM; IC50 (Human Macrophages; Homo sapiens, Macrophage): ~2000 nM

**Q.** With Cc1cccc2c1OP(=O)(OC1CC(n3cnc4c(N)ncnc43)OC1C)OC2 (centres unmarked) [Compound 11, 2′,5′-dideoxyadenosine-3′-O-cyclo-3-methyl-saligenyl phosphate] as the compound, how does the IC50 [2, 9] read?
**A.** 7000 nM

**Q.** And the IC50 [3]?
**A.** 60000 nM

**Q.** And the IC50 (Ob1771 pre-adipocytes)?
**A.** ~2000 nM

**Q.** Which IC50 (Ob1771 pre-adipocytes; [8]) does the source give for CC(C)(C)C(=O)SCCOP(=O)(COCCn1cnc2c(N)ncnc21)OCCSC(=O)C(C)(C)C [Compound 13, bis(t-Bu-SATE)-9-(2-phosphonomethoxyethyl)-adenine] here?
**A.** > 30000 nM

**Q.** For C[C@H](Cn1cnc2c(N)ncnc21)OCP(=O)(OCCSC(=O)C(C)(C)C)OCCSC(=O)C(C)(C)C [Compound 16, (R)-Bis(S-pivaloyl-2-thioethyl) 9-(2-phosphonylmethoxypropyl)-adenine], which IC50 (F442A pre-adipocytes) is on record?
**A.** > 30000 nM

**Q.** With Nc1ncnc2c1ncn2CCOCP(=O)(O)O [PMEA, 9-(phosphonomethoxyethyl)-adenine] as the compound, how does the IC50 [1, 6] read?
**A.** 65000 nM

**Q.** With Nc1ncnc2c1ncn2CCOCP(=O)(O)OP(=O)(O)OP(=O)(O)O [PMEApp] as the compound, how does the IC50 [1, 7] read?
**A.** 170 nM

**Q.** For Nc1ncnc2c1ncn2[C@@H]1CCC[C@@H]1OP(=O)(O)OP(=O)(O)OP(=O)(O)O [reference compound], which IC50 [2, 10] is on record?
**A.** 450 nM

**Q.** For Nc1ncnc2c1ncn2[C@H]1CCC[C@H]1OP(=O)(O)OP(=O)(O)OP(=O)(O)O [reference compound], which IC50 [2, 10] is on record?
**A.** 9860 nM

**Q.** Which IC50 [1, 6] does the source give for Nc1ncnc2c1ncn2[C@@H]1CC[C@H](COP(=O)(O)O)O1 [β-L-2′,3′-dd-5′-AMP] here?
**A.** 62000 nM

**Q.** Which IC50 [1, 7] does the source give for Nc1ncnc2c1ncn2C1CCC(COP(=O)(O)OP(=O)(O)OP(=O)(O)O)O1 [β-L-2′,3′-dd-5′-ATP] here?
**A.** 24 nM

**Q.** With Nc1ncnc2c1ncn2[C@H]1O[C@@H](COP(=O)(O)O)[C@H](O)[C@@H]1O [β-L-5′-AMP] as the compound, how does the IC50 [1, 6] read?
**A.** 200000 nM
